Key:
[1] = molecular target: Neuropeptide Y receptor type 1 (Homo sapiens) (UniProt P25929); test: Inhibition of Neuropeptide Y Y1 at 10 µM in the Eurofins-Panlabs radioligand binding assay (Eurofins_assay_257010); conditions: Compound concentration 10.0 uM
[2] = molecular target: Tyrosine-protein kinase ABL2 (Homo sapiens) (UniProt P42684); test: ABL2 (Arg) Kinase screen; conditions: Compound concentration 1.0 uM
[3] = molecular target: T1, Cytoplasmic tyrosine-protein kinase BMX (Homo sapiens) (UniProt P51813); test: BMX Kinase screen; conditions: Compound concentration 1.0 uM
T1 sequence (whole entry): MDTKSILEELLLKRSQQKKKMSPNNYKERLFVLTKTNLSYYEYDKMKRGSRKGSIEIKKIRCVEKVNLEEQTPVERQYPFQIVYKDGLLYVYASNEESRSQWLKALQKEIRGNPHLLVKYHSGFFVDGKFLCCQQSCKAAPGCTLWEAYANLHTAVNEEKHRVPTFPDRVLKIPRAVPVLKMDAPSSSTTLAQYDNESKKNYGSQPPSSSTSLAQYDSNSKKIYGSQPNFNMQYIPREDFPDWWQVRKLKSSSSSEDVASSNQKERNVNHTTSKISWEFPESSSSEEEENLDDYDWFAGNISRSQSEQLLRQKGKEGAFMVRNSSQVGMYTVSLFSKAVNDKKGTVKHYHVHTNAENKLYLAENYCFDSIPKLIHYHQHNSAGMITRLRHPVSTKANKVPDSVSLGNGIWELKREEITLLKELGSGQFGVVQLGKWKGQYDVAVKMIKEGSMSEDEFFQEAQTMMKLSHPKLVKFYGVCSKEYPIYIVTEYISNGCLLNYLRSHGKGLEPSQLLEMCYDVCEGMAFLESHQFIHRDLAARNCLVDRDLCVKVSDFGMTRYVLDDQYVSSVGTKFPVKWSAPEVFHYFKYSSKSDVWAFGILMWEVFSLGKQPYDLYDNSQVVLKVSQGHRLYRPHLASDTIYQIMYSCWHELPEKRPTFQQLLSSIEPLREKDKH

[4] = molecular target: Serine/threonine-protein kinase Chk2 (Homo sapiens) (UniProt O96017); test: CHEK2 (CHK2) Kinase screen; conditions: Compound concentration 1.0 uM
[5] = molecular target: Death-associated protein kinase 1 (Homo sapiens) (UniProt P53355); test: DAPK1 Kinase screen; conditions: Compound concentration 1.0 uM
[6] = molecular target: Epithelial discoidin domain-containing receptor 1 (Homo sapiens) (UniProt Q08345); test: DDR1 Kinase screen; conditions: Compound concentration 1.0 uM
[7] = molecular target: Dual specificity tyrosine-phosphorylation-regulated kinase 1A (Homo sapiens) (UniProt Q13627); test: DYRK1A Kinase screen; conditions: Compound concentration 1.0 uM
[8] = molecular target: Dual specificity tyrosine-phosphorylation-regulated kinase 3 (Homo sapiens) (UniProt O43781); test: DYRK3 Kinase screen; conditions: Compound concentration 1.0 uM
Chain of Dual specificity tyrosine-phosphorylation-regulated kinase 3 (Homo sapiens) (O43781 whole entry): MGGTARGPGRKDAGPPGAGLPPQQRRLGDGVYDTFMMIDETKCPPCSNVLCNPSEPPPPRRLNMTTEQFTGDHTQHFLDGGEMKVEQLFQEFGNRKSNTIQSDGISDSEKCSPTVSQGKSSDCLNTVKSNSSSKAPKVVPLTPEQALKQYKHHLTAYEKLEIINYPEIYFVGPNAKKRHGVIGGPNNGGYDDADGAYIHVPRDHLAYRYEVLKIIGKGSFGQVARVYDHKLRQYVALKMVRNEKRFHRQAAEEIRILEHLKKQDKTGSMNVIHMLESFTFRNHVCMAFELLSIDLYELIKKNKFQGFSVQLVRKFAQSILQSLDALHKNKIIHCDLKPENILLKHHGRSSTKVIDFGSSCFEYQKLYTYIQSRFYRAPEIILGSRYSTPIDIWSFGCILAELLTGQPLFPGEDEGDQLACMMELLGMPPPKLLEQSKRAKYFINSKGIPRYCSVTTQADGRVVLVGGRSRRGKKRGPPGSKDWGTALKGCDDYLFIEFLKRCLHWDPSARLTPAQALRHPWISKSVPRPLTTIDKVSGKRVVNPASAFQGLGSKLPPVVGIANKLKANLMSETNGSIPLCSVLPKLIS

[9] = molecular target: Tyrosine-protein kinase FRK (Homo sapiens) (UniProt P42685); test: FRK (PTK5) Kinase screen; conditions: Compound concentration 1.0 uM
[10] = molecular target: T2, Mitogen-activated protein kinase 12 (Homo sapiens) (UniProt P53778); test: MAPK12 (p38 gamma) Kinase screen; conditions: Compound concentration 1.0 uM
T2 sequence (whole entry): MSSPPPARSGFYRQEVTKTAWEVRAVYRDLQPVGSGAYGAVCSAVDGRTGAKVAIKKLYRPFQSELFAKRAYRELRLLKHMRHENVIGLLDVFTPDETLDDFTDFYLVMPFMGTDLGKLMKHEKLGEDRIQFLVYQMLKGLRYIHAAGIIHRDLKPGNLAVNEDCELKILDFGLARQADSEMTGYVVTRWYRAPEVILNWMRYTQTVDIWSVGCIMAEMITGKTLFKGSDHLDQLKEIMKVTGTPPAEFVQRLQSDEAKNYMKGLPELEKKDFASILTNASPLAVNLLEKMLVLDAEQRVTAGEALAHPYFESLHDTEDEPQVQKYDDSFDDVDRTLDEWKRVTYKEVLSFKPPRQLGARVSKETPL

[11] = tested on: Hepatocyte growth factor receptor (Homo sapiens), P08581 [M1250T]; test: MET M1250T Kinase screen; conditions: Compound concentration 1.0 uM
[12] = tested on: Proto-oncogene tyrosine-protein kinase receptor Ret (Homo sapiens), P07949 [Y791F]; test: RET Y791F Kinase screen; conditions: Compound concentration 1.0 uM
Chain of Proto-oncogene tyrosine-protein kinase receptor Ret (Homo sapiens), P07949 [Y791F] (P07949 whole entry Y791F): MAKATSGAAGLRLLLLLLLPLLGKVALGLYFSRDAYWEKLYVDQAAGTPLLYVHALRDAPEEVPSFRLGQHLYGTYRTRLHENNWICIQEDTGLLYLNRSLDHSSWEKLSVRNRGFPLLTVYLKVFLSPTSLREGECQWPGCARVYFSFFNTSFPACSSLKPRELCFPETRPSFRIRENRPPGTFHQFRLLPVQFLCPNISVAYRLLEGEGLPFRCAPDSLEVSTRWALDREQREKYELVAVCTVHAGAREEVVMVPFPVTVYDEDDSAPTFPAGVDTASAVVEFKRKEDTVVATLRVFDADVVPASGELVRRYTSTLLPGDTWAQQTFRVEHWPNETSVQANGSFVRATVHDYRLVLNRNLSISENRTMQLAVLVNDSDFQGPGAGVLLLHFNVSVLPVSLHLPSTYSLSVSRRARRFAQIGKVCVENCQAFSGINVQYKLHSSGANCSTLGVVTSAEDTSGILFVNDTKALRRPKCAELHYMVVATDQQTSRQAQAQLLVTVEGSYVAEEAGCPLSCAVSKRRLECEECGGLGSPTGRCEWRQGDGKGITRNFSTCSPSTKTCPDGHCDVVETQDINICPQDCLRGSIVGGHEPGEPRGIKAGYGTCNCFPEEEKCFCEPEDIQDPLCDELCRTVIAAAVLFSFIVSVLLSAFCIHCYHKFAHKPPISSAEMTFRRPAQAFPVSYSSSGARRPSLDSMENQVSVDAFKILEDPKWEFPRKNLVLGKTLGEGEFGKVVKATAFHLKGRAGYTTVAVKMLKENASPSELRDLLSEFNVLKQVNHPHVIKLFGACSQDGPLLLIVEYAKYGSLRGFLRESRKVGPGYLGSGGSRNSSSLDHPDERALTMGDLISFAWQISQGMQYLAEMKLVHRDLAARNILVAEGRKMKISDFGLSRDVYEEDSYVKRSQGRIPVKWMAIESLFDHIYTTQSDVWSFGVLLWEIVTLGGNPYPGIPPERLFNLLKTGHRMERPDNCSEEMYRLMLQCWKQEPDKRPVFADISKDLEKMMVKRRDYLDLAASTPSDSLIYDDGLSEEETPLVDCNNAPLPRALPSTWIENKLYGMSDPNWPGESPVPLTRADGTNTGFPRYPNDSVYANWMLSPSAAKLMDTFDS

[13] = molecular target: Receptor-interacting serine/threonine-protein kinase 2 (Homo sapiens) (UniProt O43353); test: RIPK2 Kinase screen; conditions: Compound concentration 1.0 uM
[14] = molecular target: Serine/threonine-protein kinase SIK2 (Homo sapiens) (UniProt Q9H0K1); test: SNF1LK2 Kinase screen; conditions: Compound concentration 1.0 uM
Chain of Serine/threonine-protein kinase SIK2 (Homo sapiens) (Q9H0K1 whole entry, looked up): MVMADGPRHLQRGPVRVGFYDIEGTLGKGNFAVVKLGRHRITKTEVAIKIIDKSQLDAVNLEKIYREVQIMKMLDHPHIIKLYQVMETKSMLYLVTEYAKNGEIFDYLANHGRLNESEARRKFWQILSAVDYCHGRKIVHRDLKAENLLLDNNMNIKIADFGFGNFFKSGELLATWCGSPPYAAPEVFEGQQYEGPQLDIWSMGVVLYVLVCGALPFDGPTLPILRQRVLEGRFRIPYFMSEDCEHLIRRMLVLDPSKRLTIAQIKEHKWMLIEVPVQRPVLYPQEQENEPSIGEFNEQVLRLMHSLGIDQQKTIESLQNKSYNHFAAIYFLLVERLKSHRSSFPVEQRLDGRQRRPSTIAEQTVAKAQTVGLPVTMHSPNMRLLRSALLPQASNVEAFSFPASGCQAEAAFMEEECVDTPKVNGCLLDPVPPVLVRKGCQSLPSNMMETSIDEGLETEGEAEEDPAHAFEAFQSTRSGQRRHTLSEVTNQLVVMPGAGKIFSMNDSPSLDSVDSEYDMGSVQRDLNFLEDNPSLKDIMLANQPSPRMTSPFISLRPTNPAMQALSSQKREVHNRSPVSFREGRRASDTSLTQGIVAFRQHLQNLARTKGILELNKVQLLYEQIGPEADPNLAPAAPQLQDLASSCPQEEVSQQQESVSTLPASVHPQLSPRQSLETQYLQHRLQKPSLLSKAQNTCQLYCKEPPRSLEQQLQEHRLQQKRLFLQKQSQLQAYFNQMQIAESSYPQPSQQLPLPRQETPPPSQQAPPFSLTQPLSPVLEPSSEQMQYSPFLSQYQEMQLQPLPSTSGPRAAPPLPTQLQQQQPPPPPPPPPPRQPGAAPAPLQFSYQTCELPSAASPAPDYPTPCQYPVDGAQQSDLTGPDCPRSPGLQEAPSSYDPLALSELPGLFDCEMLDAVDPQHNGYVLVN

[15] = molecular target: Adrenomedullin receptor AM1; CALCRL/RAMP2 (Homo sapiens) (UniProt O60895+Q16602); test: Adrenomedullin AM1 Eurofins-Panlabs radioligand binding assay; type: protein-complex assay; conditions: Compound concentration 10.0 uM
[16] = molecular target: Beta-1 adrenergic receptor (Homo sapiens) (UniProt P08588); conditions: Compound concentration 10.0 uM
Chain of Beta-1 adrenergic receptor (Homo sapiens) (P08588 whole entry, looked up): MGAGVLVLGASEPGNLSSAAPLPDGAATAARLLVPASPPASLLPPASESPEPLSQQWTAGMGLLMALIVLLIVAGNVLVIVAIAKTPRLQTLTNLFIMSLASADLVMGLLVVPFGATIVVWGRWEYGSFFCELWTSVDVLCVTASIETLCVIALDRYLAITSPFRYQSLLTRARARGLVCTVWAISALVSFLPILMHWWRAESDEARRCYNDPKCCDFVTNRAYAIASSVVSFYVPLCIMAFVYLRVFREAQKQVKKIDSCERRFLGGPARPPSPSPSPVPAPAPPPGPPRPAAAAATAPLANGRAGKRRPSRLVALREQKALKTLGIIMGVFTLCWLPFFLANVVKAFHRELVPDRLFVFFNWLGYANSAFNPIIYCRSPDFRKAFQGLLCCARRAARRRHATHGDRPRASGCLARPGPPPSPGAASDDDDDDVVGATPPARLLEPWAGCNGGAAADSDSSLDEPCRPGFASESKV

[17] = molecular target: Glutamate receptor 2 (Homo sapiens) (UniProt P42262); conditions: Rattus norvegicus; Compound concentration 10.0 uM
[18] = molecular target: Gastrin/cholecystokinin type B receptor (Homo sapiens) (UniProt P32239); conditions: Compound concentration 10.0 uM
[19] = molecular target: Gamma-aminobutyric acid type B receptor subunit 1 (Homo sapiens) (UniProt Q9UBS5); conditions: Rattus norvegicus; Compound concentration 10.0 uM

Measured: inhibition

Chain of Tyrosine-protein kinase ABL2 (Homo sapiens) (P42684 whole entry): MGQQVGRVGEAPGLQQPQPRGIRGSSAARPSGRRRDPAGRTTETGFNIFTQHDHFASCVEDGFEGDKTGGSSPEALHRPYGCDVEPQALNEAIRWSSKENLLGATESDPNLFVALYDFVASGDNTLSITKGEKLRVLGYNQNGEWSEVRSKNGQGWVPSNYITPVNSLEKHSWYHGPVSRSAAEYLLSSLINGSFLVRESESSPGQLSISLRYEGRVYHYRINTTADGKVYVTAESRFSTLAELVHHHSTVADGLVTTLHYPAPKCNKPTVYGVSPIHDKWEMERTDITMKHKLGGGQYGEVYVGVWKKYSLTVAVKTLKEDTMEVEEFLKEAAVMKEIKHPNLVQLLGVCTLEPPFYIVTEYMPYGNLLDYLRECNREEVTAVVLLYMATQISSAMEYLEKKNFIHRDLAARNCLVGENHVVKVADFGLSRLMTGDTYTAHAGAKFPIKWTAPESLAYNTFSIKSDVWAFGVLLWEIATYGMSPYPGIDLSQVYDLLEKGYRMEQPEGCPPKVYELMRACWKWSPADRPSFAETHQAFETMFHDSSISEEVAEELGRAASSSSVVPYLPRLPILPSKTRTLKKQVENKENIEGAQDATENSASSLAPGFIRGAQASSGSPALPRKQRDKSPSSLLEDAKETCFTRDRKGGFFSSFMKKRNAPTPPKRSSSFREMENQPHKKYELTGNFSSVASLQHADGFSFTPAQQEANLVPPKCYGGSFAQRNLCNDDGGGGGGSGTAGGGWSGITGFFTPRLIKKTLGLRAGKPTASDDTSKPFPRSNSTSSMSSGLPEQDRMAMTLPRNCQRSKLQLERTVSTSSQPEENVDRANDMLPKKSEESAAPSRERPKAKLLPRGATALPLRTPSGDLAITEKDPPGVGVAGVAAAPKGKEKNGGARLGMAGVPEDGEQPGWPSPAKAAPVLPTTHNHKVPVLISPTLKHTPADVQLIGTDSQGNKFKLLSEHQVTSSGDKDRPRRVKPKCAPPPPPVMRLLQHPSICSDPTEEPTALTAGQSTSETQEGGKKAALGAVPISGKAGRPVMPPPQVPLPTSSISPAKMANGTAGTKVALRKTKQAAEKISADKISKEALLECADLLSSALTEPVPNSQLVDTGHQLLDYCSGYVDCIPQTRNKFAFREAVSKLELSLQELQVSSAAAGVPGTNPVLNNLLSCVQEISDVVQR
Chain of Neuropeptide Y receptor type 1 (Homo sapiens) (P25929 whole entry): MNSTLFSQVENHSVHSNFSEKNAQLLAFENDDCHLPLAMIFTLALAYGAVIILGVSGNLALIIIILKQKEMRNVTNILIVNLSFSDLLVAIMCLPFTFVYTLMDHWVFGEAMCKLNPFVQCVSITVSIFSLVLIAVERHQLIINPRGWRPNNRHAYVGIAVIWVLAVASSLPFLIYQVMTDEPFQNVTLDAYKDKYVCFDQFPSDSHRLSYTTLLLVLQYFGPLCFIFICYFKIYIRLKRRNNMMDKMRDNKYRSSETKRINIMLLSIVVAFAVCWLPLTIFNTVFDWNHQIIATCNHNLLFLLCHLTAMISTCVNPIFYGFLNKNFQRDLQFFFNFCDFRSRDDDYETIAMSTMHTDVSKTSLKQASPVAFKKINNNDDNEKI

C[C@@H]1CN(c2cc(-c3n[nH]c4ccc(OC5(C)CC5)cc34)ncn2)C[C@H](C)O1 [MLi-2]
inactive: [1] 0% | [2] 0.91% | [3] 14% | [4] 14.9% | [5] -0.645% | [6] 0.893% | [7] 4.36% | [8] 2.54% | [9] 7.13% | [10] 1% | [11] 2.2% | [12] 5.35% | [13] -0.0326% | [14] 7.08% | [15] -8% | [16] -7% | [17] -2% | [18] 15% | [19] -3%
